Reference: publication doi:10.1101/2025.11.04.686469, “Discovery of Host-Directed Small Molecules with Broad Anti-Leishmanial Efficacy” (bioRxiv, 2025)

System: THP-1 macrophages
Assay: Effect of compounds on host cell viability (MTT)
Format: cell-based
Conditions: read-out: 24h LC50; THP1 macrophages, 24-hour incubation, MTT assay (Supplemental Table 2)
Method: The cells were cultured at 37C, 5% CO2 in RPMI medium (ATCC) supplemented with 10% FBS, 1% Penicillin/Streptomycin and 0.05 mM of β-mercaptoethanol. Cells were used in experiments up to passage 10.
Effect of the compounds on THP-1 cell viability measured using thiazolyl blue tetrazolium bromide which measures cell metabolic activity (MTT). THP-1 cells were seeded in a 96 well plate (25,000 cells/well) overnight then differentiated with 150 nM phorbol 12-myristate 13-acetate (PMA) over 72 hours. Macrophages were then treated with compounds resuspended in RPMI media (1- 50 μM) for 24 hours. Media was replaced with thiazolyl blue tetrazolium bromide solubilized in RPMI media (0.5 mg/mL) and incubated at 37°C for 2 hours. The reduced formazan crystals were solubilized with isopropyl alcohol and the absorbance of the resulting solution was measured at 560 nm with a background subtraction at 670 nm. […] This process was repeated with a 72-hr incubation and extended concentration range (1 - 300 μM) for select compounds.

FC(F)c1cc(-c2ccc(-c3ccc(C(F)(F)F)cc3)cc2)n(-c2ccc(Br)cc2)n1 [Compound 279]
CC50: > 50 µM

Fc1ccccc1CNC1CCN(c2ccc(-n3nc(C(F)(F)F)cc3-c3ccc(-c4ccc(C(F)(F)F)cc4)cc3)cc2)C1 (stereo not drawn) [Compound 21]
CC50: > 50 µM

N#Cc1ccc(CN2CCC(Nc3ccc(-n4nc(C(F)(F)F)cc4C4CCCCC4)cc3)CC2)cc1 [Compound 389]
CC50: > 50 µM

FC(F)(F)c1cc(-c2ccc(-c3ccc(S(F)(F)(F)(F)F)cc3)cc2)n(-c2ccc(N3CCNCC3)cc2)n1 [Compound 46]
CC50: 10 µM

NCC(=O)NCCn1cc(C(F)(F)F)nc1-c1ccc(C(F)(F)F)cc1 [Compound 295]
CC50: > 50 µM

CCc1cc(C(F)(F)F)nn1-c1ccc(Br)cc1 [Compound 316]
CC50: > 50 µM

NCC(=O)Nc1ccc(-n2ccnc2-c2ccc(C(F)(F)F)cc2)cc1 [Compound 406]
CC50: > 50 µM

FC(F)(F)c1ccc(-c2ccc(-c3cc(C(F)(F)F)nn3-c3ccc(N4CCC(NCc5cccs5)C4)cc3)cc2)cc1 (stereo not drawn) [Compound 20]
CC50: > 50 µM

CC(C)(C)OC(=O)N1CCN(c2ccc(-n3nc(C(F)(F)F)cc3-c3ccc(C#CC(F)(F)F)cc3)cc2)CC1 [Compound 47]
CC50: > 50 µM

FC(F)(F)c1cc(C(F)(F)F)n(-c2ccc(Br)cc2)n1 [Compound 276]
CC50: 32.2 µM

Cc1cc(C(F)(F)F)nn1-c1ccc(NC2CCNC2)cc1 (stereo not drawn) [Compound 313]
CC50: > 50 µM

O=[N+]([O-])c1ccc(-n2nc(-c3ccc(Br)cc3)cc2C(F)(F)F)cc1 [Compound 38]
CC50: > 50 µM

Oc1ccc(-n2nc(C(F)(F)F)cc2-c2ccc(-c3ccc(C(F)(F)F)cc3)cc2)cc1 [Compound 27]
CC50: > 50 µM

CC(C)(C)OC(=O)NC1CN(c2ccc(-n3nc(C(F)(F)F)cc3-c3ccc(-c4ccc(C(F)(F)F)cc4)cc3)cc2)C1 [Compound 22]
CC50: > 50 µM

Fc1cccc(CN2CCC(Oc3ccc(-n4nc(C(F)(F)F)cc4C4CCCCC4)cc3)C2)c1 (stereo not drawn) [Compound 376]
CC50: > 50 µM

O=[N+]([O-])c1ccc(-n2nc(C(F)(F)F)cc2-c2ccc(Br)cc2)cc1 [Compound 37]
CC50: > 50 µM

Oc1ccc(CN2CCC(Oc3ccc(-n4nc(C(F)(F)F)cc4C4CCCCC4)cc3)CC2)cc1 [Compound 374]
CC50: 8.2 µM

FC(F)(F)c1ccc(-c2ccc(-c3cc(C(F)(F)F)nn3-c3ccc(NC4CCN(Cc5ccc(-c6ccccc6)cc5)C4)cc3)cc2)cc1 (stereo not drawn) [Compound 36]
CC50: > 50 µM

Cc1cc(C(F)(F)F)nn1-c1ccc(Br)cc1 [Compound 275]
CC50: > 50 µM

NCC(=O)Nc1ccc(-n2cc(C(F)(F)F)nc2C2CCCCC2)cc1 [Compound 327]
CC50: > 50 µM

FC(F)(F)c1ccc(-c2ccc(-c3cc(C(F)(F)F)nn3-c3ccc(NC4CN(C(c5ccccc5)c5ccccc5)C4)cc3)cc2)cc1 [Compound 4]
CC50: > 50 µM

O=[N+]([O-])c1ccc(-n2nc(C(F)(F)F)cc2-c2ccc(C#CC3CC3)cc2)cc1 [Compound 39]
CC50: > 50 µM

CC(C)(C)OC(=O)N1CCC(Oc2ccc(-n3nc(C(F)(F)F)cc3C3CCCCC3)cc2)CC1 [Compound 367]
CC50: > 50 µM

N#Cc1ccc(CN2CCC(Nc3ccc(-n4nc(C(F)(F)F)cc4C4CCCCC4)cc3)C2)cc1 (stereo not drawn) [Compound 358]
CC50: 13.2 µM

Fc1cccc(COC2CCN(c3ccc(-n4nc(C(F)(F)F)cc4C4CCCCC4)cc3)C2)c1 (stereo not drawn) [Compound 415]
CC50: > 50 µM

FC(F)(F)c1cc(-c2ccco2)n(-c2ccc(Br)cc2)n1 [Compound 267]
CC50: > 50 µM

CCCCCCNc1ccc(-n2nc(C(F)(F)F)cc2-c2ccc(-c3ccc(C(F)(F)F)cc3)cc2)cc1 [Compound 60]
CC50: > 50 µM

FC(F)(F)c1cn(-c2ccc(NC3CCNC3)cc2)c(-c2ccncc2)n1 (stereo not drawn) [Compound 333]
CC50: > 50 µM

FC(F)(F)c1ccc(-c2cnnn2-c2ccc(NC3CCNCC3)cc2)cc1 [Compound 434]
CC50: 24.6 µM

COc1ccc(CNC2CCN(c3ccc(-n4nc(C(F)(F)F)cc4-c4ccc(-c5ccc(C(F)(F)F)cc5)cc4)cc3)C2)cc1 (stereo not drawn) [Compound 14]
CC50: 50 µM

NCC(=O)Nc1ccc(-n2cc(C(F)(F)F)nc2-c2ccccc2C(F)(F)F)cc1 [Compound 297]
CC50: > 50 µM

FC(F)(F)c1cc(C2CC2)n(-c2ccc(Br)cc2)n1 [Compound 266]
CC50: > 50 µM

CC(C)C#Cc1ccc(-c2cc(C(F)(F)F)nn2-c2ccc(N3CCC(NCc4ccc(O)cc4)C3)cc2)cc1 (stereo not drawn) [Compound 101]
CC50: 0.5 µM

Cc1cc(C(F)(F)F)n(-c2ccc(NC3CCN(C(=O)OC(C)(C)C)C3)cc2)n1 (stereo not drawn) [Compound 282]
CC50: > 50 µM

CC(C)(C)OC(=O)N1CCC(Oc2ccc(-n3nc(C(F)(F)F)cc3-c3ccc(-c4ccc(C(F)(F)F)cc4)cc3)cc2)CC1 [Compound 28]
CC50: > 50 µM

FC(F)(F)c1cc(-c2ccc(Cl)c(Cl)c2)n(-c2ccc(NC3CCNC3)cc2)n1 (stereo not drawn) [Compound 261]
CC50: 22.4 µM

FC(F)(F)c1ccc(CNC2CCN(c3ccc(-n4nc(C(F)(F)F)cc4-c4ccc(-c5ccc(C(F)(F)F)cc5)cc4)cc3)C2)cc1 (stereo not drawn) [Compound 24]
CC50: > 50 µM

FC(F)(F)c1cc(C2CCCCC2)n(-c2ccc(OC3CCN(Cc4ccccc4)C3)cc2)n1 (stereo not drawn) [Compound 378]
CC50: > 50 µM

FC(F)(F)c1ccc(-c2ccc(-c3cc(C(F)(F)F)nn3-c3ccc(N4CCC(NCc5cccc(Cl)c5Cl)C4)cc3)cc2)cc1 (stereo not drawn) [Compound 13]
CC50: > 50 µM

CC(C)c1cc(C(F)(F)F)nn1-c1ccc(NC2CCN(C(=O)OC(C)(C)C)C2)cc1 (stereo not drawn) [Compound 286]
CC50: > 50 µM

NC(=O)CNc1ccc(-n2cc(C(F)(F)F)nc2-c2ccc(C(F)(F)F)cc2)cc1 [Compound 405]
CC50: > 50 µM

CC(=O)NCCN1CCC(Oc2ccc(-n3nc(C(F)(F)F)cc3C3CCCCC3)cc2)CC1 [Compound 417]
CC50: 24.4 µM

NCC(=O)Nc1ccc(-n2cc(C(F)(F)F)nc2-c2ccc(OC(F)(F)F)cc2)cc1 [Compound 299]
CC50: 31.6 µM

NCCNC1CCN(c2ccc(-n3nc(C(F)(F)F)cc3C3CCCCC3)cc2)CC1 [Compound 418]
CC50: 12.6 µM

COc1ccc(-n2nc(C(F)(F)F)cc2-c2ccc(-c3ccc(C(F)(F)F)cc3)cc2)cc1 [Compound 26]
CC50: 5.8 µM

O=C(CO)Nc1ccc(-n2cc(C(F)(F)F)nc2-c2ccc(C(F)(F)F)cc2)cc1 [Compound 404]
CC50: > 50 µM

Fc1cccc(CNC2CCN(c3ccc(-n4nc(C(F)(F)F)cc4C4CCCCC4)cc3)C2)c1 (stereo not drawn) [Compound 285]
CC50: > 50 µM

FC(F)(F)c1c[nH]c(-c2ccc(-c3ccccc3)cc2)n1 [Compound 31]
CC50: > 50 µM

FC(F)(F)c1ccc(-c2ccc(-c3cc(C(F)(F)F)nn3-c3ccc(NC4CCN(Cc5cccc(Cl)c5Cl)C4)cc3)cc2)cc1 (stereo not drawn) [Compound 52]
CC50: > 50 µM

CC(C)(C)OC(=O)N1CC(Nc2ccc(-n3nc(C(F)(F)F)cc3-c3ccc(-c4ccc(C(F)(F)F)cc4)cc3)cc2)C1 [Compound 56]
CC50: > 50 µM

CC(=O)NCCCOc1ccc(CN2CCC(Oc3ccc(-n4nc(C(F)(F)F)cc4C4CCCCC4)cc3)CC2)cc1 [Compound 430]
CC50: 16.5 µM

COc1ccc(-n2nc(C(F)(F)F)cc2C2CCCCC2)cc1 [Compound 363]
CC50: > 50 µM

O=C(CNCc1cccc(F)c1)Nc1ccc(-n2nc(C(F)(F)F)cc2C2CCCCC2)cc1 [Compound 352]
CC50: 29.3 µM

CC(C)(C)OC(=O)N1CCC(Nc2ccc(-n3nc(C(F)(F)F)cc3C3CC3)cc2)C1 (stereo not drawn) [Compound 268]
CC50: > 50 µM
